Assay: Human HepG2 cell viability assay in 384 well format
Format: toxicity, cell-based
Parameters: dose 125 nL, time 70.5 hour; concentration not given beside the values
Conditions: HepG2 cells, read-out: Inhibition

In order of falling cytotoxicity at 70.5 h:
1. Cc1cccnc1NCCNC(=O)c1cnc(-c2ccccn2)nc1O  46.5%
2. Cc1ccc(C(C(=O)NC(C)(C)CN2CCCC2)N(C)C)cc1 (centres undefined)  45%
3. Cc1cc(C)c2c(N3CCN(C(=O)N4CCOCC4)CC3)ncnc2n1  30.5%
4. O=C(Nc1ccc(F)cc1)C1CNCCN1C(=O)CSc1ccncc1 (centres undefined)  28.9%
5. CN(C)CCOc1cccc(CN2CCCC3(C2)CN(C)C(=O)O3)c1 (centres undefined)  26%
6. Oc1cc(CNCCN2CCCCC2)nc2c(F)cccc12  24.5%
7. O=S(=O)(NCc1ccccc1)Nc1ccc(-n2ccnc2)cc1  23.3%
8. Cc1nccn1CCCN1CCCC(c2nccn2C)C1 (centres undefined)  21.3%
9. CCN(CC)C(CNCc1cc(F)cc(F)c1)c1ccco1 (centres undefined)  20.8%
10. CNCCN1C(=O)CC[C@H]2CN(c3ncc(F)cn3)CC[C@H]21  20%
11. CCCn1cnc(NC(=O)NCC2CCS(=O)(=O)C2)n1 (centres undefined)  12.9%
12. CC(C)c1nc(CNC(=O)c2ccc(C(C)N3CCCCC3)o2)cs1 (centres undefined)  11.9%
13. Cc1c(NC(=O)NC2CCOCC2)cccc1C(=O)N1CCCC1  10.6%
14. Cc1ccc(-c2cn[nH]c2C2CCCN(c3cnccn3)C2)cc1 (centres undefined)  10.6%
15. Cc1cccc(CN2CCN(c3ncnc4[nH]cnc34)CC2CCO)n1 (centres undefined)  9.72%
16. Cc1cccc(CN2CCCC(O)(CNCCc3c[nH]cn3)C2=O)c1 (centres undefined)  9.08%
17. CC(C)(CN1CCC2(CCCNC2)C1)N1CCOCC1 (centres undefined)  8.57%
18. CC(C)(C)NC(=O)[C@@H]1Cc2ccccc2CN1Cc1cccs1  8.37%
19. CCCc1nnc(N2CCC3(CCC(=O)N(C)C3)CC2)o1  4.55%
20. Cc1c(CN2CCc3[nH]cnc3C2C2CC2)[nH]c2ccc(F)cc12 (centres undefined)  4.41%
21. CC(C)(O)c1cn(C2CCN(c3ncccc3Cl)CC2)nn1  3.9%
22. Cc1ncc(C(=O)N2C[C@H](CO)C[C@H](CN3CCOCC3)C2)c(=O)[nH]1  3.07%
23. c1cnn(Cc2ccc(CN3CCC4(CCNCC4)C3)cc2)c1  2.52%
24. Cc1cc(C)c2nc(CN3CCC(N4CCOC4=O)CC3)cc(O)c2c1  2.37%
25. N#Cc1ccccc1CC1CCCS(=O)(=O)C1 (centres undefined)  1.43%
26. COc1cc(S(=O)(=O)N2C[C@@H](C)[C@@](C)(O)C2)c(C)cc1C  0.245%
27. Cc1n[nH]c(CN2CCN(Cc3ccccc3)[C@@H]3CS(=O)(=O)C[C@@H]32)n1  0.0797%
28. O=C(Nc1cccc2ccccc12)N1CCC(N2CCSCC2)CC1  -0.0142%
29. Cc1ccc(N2CCN(c3ccccc3C)CC2C)nn1 (centres undefined)  -0.203%
30. CC(C)[C@@H]1CN(Cc2ccccn2)C[C@H]1NS(=O)(=O)N(C)C  -0.239%
31. CC1=NOC(C(=O)N(C)CCCn2nc(C)cc2C)C1 (centres undefined)  -0.336%
32. COc1ccc(C(=O)N2CCN(c3cc(CCN)nc(C)n3)CC2)cc1  -0.395%
33. CC(C)n1ccnc1C1CCCN(c2ncccc2C(N)=O)C1 (centres undefined)  -0.947%
34. COc1ccccc1CC(=O)N(CCN1CCOCC1)Cc1ccco1  -1.43%
35. OC[C@H]1CN(Cc2c(Cl)cncc2Cl)C[C@H]1CN1CCCCCC1  -1.47%
36. Cc1cc(C2CCC2)nc(NCC(C)(C)CO)n1  -2.23%
37. O=C(CCCc1ccc(Cl)cc1)N1CCC(c2nnc[nH]2)CC1  -2.6%
38. Cc1nc(CN(C)Cc2nc(-c3sccc3C)oc2C)no1  -3%
39. COc1cccc2c1OCC(CNc1ccc(C)nn1)C2 (centres undefined)  -3.11%
40. Cc1ccoc1C(=O)N1CCC(n2cc(CO)nn2)CC1  -3.4%
41. CCNC(=O)[C@@H]1C[C@H](N)CN1C(=O)CCc1ccc(C)c(C)c1  -3.41%
42. O=C(O)c1ccc(CNC(=O)C2CCN(Cc3ccco3)CC2)s1  -3.49%
43. CCn1c(C2CCCN(Cc3ccc4ccccc4n3)C2)nn(C)c1=O (centres undefined)  -3.7%
44. Cc1cc(C)c(-n2cccn2)c(CN2CCOCC(CN(C)C)C2)c1 (centres undefined)  -3.75%
45. CC(C)N1CCC(N2CCCC(C(=O)NCC3(O)CCCCC3)C2)CC1 (centres undefined)  -3.9%
46. Cc1ccc(NC2CCCN(CCc3ccccc3)C2)nn1 (centres undefined)  -3.93%
47. Oc1ccccc1CN1CCC(n2cc(-c3ccc(F)cc3)nn2)CC1  -4%
48. CC(=O)NC1CCN(C(=O)c2cnc(COc3ccccc3)nc2O)C1 (centres undefined)  -4.02%
49. CN1C(=O)[C@H]2CC[C@@H]1CN(C(=O)Nc1ccccc1C(F)(F)F)C2  -4.06%
50. CCc1nc(CN(C)C(=O)C2CCC(=O)N(CC3CCCCC3)C2)no1 (centres undefined)  -4.07%
51. COc1cccc(N2CCN(C(=O)C(O)c3ccccc3Cl)CC2=O)c1 (centres undefined)  -4.36%
52. CNc1cc(C)nc(-c2cc(NC3CCNCC3)nc3[nH]ccc23)n1  -4.41%
53. NC(=O)c1ccc(N2CCN(Cc3cccc4nsnc34)CC2)nc1  -4.59%
54. CC(C)Oc1cccc(Cc2nc3c([nH]2)CCCNC3=O)c1  -4.78%
55. Cc1cnc(NC(=O)c2ccc(C3CCCN3CC(C)C)s2)s1 (centres undefined)  -5.46%
56. CCc1cnc(N)nc1NC(C)c1cnn(C)c1 (centres undefined)  -5.96%
57. O=C(Nc1cnc2n1CCCC2)c1cccc(OCC(F)(F)F)c1  -6.16%
58. COCCN1C[C@H]2CC[C@@H]1CN(Cc1nc3ccccc3n1C)C2  -6.43%
59. O=C(c1ccccc1)N1C[C@@H]2CC[C@H](C1)N(S(=O)(=O)c1cccnc1)C2  -7.07%
60. O=C1C[C@H]2CC[C@@H](CN1)N2C(=O)CCCc1ccc(Cl)cc1  -7.24%
61. CCCn1ncc(C(=O)N2CCN(C(=O)c3ccc[nH]3)CC2)c1C  -7.32%
62. CCc1cc(N(C)CCc2noc(C)n2)nc(N2CCOCC2)n1  -7.76%
63. CC(C)[C@]1(O)CN(C(=O)C2(Cn3cccn3)CC2)C[C@H]1C  -7.77%
64. CCNC(=O)[C@@H]1C[C@H](N)CN1Cc1ccc2cccc(Cl)c2n1  -7.99%
65. Cc1ccc(-c2cnnc(NCC3(N4CCOCC4)CCCC3)n2)o1  -8.14%
66. CN1CC(C(=O)N(C)Cc2cc(-c3cccnc3)no2)NC1=O (centres undefined)  -8.52%
67. Cn1c(N2CCOCC2)nc2cc(C(=O)NCc3cccnc3)ccc21  -9.04%
68. Cc1ccc(OCc2occc2C(=O)N2C[C@@H]3[C@@H](CN(C)C)[C@@H]3C2)cc1  -9.55%
69. CCO[C@H]1C[C@@H](O)C12CCN(C1Cc3ccccc3C1)CC2  -10.5%
70. Cc1cc(N2Cc3cnn(CCO)c3C2)nc(-c2ccccc2)n1  -11.9%
71. CCCn1cc(NC(=O)c2cccc(CN3CC[C@H](O)C3)c2)nn1  -11.9%
72. Cc1cc(CC(C)Nc2nc(-c3cccnc3)nc3c2CNC3)[nH]n1 (centres undefined)  -12%
73. CCc1cn[nH]c1C1CCN(C(=O)c2cccc(O)c2C)CC1  -12.3%
74. CSc1nccc(NCc2cc3n(n2)CCCN(S(C)(=O)=O)C3)n1  -12.4%
75. COc1ccc(CN(CC2CCCO2)C(=O)CN2CCCCC2=O)cc1 (centres undefined)  -12.9%
76. CCOCC(=O)N1Cc2cnc(-c3ccccc3)nc2C1  -13%
77. CN(Cc1cc(C(C)(C)C)n[nH]1)C(=O)c1ccccc1C1CCNC1 (centres undefined)  -13.4%
78. COCCN(CC1CCCO1)C(=O)CCNC(=O)c1ccccc1F (centres undefined)  -13.6%
79. O=C1NCCN(C(=O)CN2CCOC2=O)C1c1cccc(F)c1 (centres undefined)  -18.2%

Source: ChEMBL document CHEMBL3507680, “University of Dundee, Gates Library screen for HepG2 cell viability”
